How the values were obtained:
[1] = target: human Janus kinase 3 (JAK3), recombinant catalytic domain (Homo sapiens (Human), UniProt P52333); test: LanthaScreen TR-FRET enzymatic assay, JAK3; format: biochemical; details: TR-FRET, 1 mM ATP, GFP-STAT1 substrate; read-out: Inhibitory Activity IC50 JAK3
Procedure: (§1) The in vitro inhibition of recombinant human JAKs was determined as follow.
(§2) Compounds were tested in LANTHASCREEN™ time-resolved fluorescence energy transfer (TR-FRET) enzymatic assays from Invitrogen. The human Janus kinase 1 (JAK1) used in the assay is the recombinant JAK1 catalytic domain (amino acids 866-1154) expressed and purified from insect cells (Invitrogen, Cat. No. PV4774). The human Janus kinase 2 (JAK2) used in the assay is the recombinant JAK2 catalytic domain (amino acids 808-1132) expressed and purified from insect cells (Invitrogen, Cat. No. PV4210). The human Janus kinase 3 (JAK3) used in the assay is the recombinant JAK3 catalytic domain (amino acids 781-1124) expressed and purified from insect cells (Invitrogen, Cat. No. PV3855). The human tyrosine kinase 2 (TYK2) used in the assay is the recombinant TYK2 catalytic domain (amino acids 833-1187) expressed and purified from insect cells (Invitrogen, Cat. No. PV4790). The substrate is a recombinant STAT1 expressed as a fusion with GFP (Green Fluorescent Protein) to act as a physiological substrate (Invitrogen, Cat. No. PV5211).
(§3) Test compounds were prepared and diluted in DMSO in 3-fold serial dilutions for 10 doses to 100× of the final testing concentrations. The compounds were then further diluted to 4× by the kinase reaction buffer (Invitrogen, Cat. No. PV3189). The enzymatic reaction for compound testing was performed in a white 384-well polypropylene plate (Packard, Cat. No. 6005214) with a total reaction volume of 10 μL containing 440 ng/mL JAK1, 11 ng/mL JAK2, 400 ng/mL JAK3, or 200 ng/mL TYK2, 100 nM substrate, and 1 mM ATP. The assay started with loading 2.5 μL of JAK1, JAK2, JAK3, or TYK2 diluted in the kinase reaction buffer to wells, followed by addition of an equal volume of 4× compounds for 15-min incubation at room temperature for pre-treatment. The enzymatic reaction was initiated by addition of 5 μL of a mixture of the substrate and ATP prepared in the kinase reaction buffer. After one hour reaction, 10 μL mixture of EDTA (final 10 mM) and terbium-labeled anti-pSTAT1 (pTyr701) antibody (final 2 nM) (Invitrogen, Cat. No. PV4844) prepared in TR-FRET antibody dilution buffer (Invitrogen, Cat. No. PV3574) was added to stop the enzymatic reaction and produce TR-FRET signals. After 30 minutes of incubation at room temperature, the plate was read in Tecan Infinite F200 Pro with the following settings: Excitation 340 nm (30)/Emission1 495 nm (10)/Emission2 520 nm (25). The TR-FRET values were dimensionless numbers that were calculated as the ratio of the acceptor ([…]) signal to the donor (Terbium) signal. Percent of inhibition was calculated as (100%−percentage of compound-treated/DMSO vehicle-treated). The dose-response curves were generated and the IC50s were calculated by nonlinear sigmoid curve fitting using GraphPad Prism.
(§4) In Table 1, A represents a value no greater than 500 nM, B represents a value greater than 500 nM but no greater than 1 μM, C represents a value greater than 1 μM but no greater than 5 μM, and D represents a value greater than 5 μM. In Table 2, A′ represents a ratio of greater than 8, B′ represents a ratio of no greater than 8 but no less than 4, C′ represents a ratio of no greater than 4 but no less than 2, and D′ represents a ratio of no greater than 2. The selectivity is expressed as a ratio of the IC50 values of a compound against two kinases to be compared.

[2] = test system: human Janus kinase 3 (JAK3), recombinant catalytic domain; test: LanthaScreen TR-FRET enzymatic assay, JAK3; format: biochemical; details: ratio of IC50 against JAK3 over IC50 against JAK1
Procedure: as §1, §2, §3, §4

[3] = test system: human tyrosine kinase 2 (TYK2), recombinant catalytic domain; test: LanthaScreen TR-FRET enzymatic assay, TYK2; format: biochemical; details: ratio of IC50 against TYK2 over IC50 against JAK1
Procedure: as §1, §2, §3, §4

[4] = target: human tyrosine kinase 2 (TYK2), recombinant catalytic domain (Homo sapiens (Human), UniProt P29597); test: LanthaScreen TR-FRET enzymatic assay, TYK2; format: biochemical; details: TR-FRET, 1 mM ATP, GFP-STAT1 substrate; read-out: Inhibitory Activity IC50 TYK2
Procedure: as §1, §2, §3, §4

[5] = target: human Janus kinase 1 (JAK1), recombinant catalytic domain (Homo sapiens (Human), UniProt P23458); test: LanthaScreen TR-FRET enzymatic assay, JAK1; format: biochemical; details: 1 mM ATP, GFP-STAT1 substrate, read-out: Inhibitory Activity IC50 JAK1
Procedure: as §1, §2, §3, §4

[6] = target: human Janus kinase 2 (JAK2), recombinant catalytic domain (Homo sapiens (Human), UniProt O60674); test: LanthaScreen TR-FRET enzymatic assay, JAK2; format: biochemical; details: for IC50: TR-FRET, 1 mM ATP, GFP-STAT1 substrate, read-out: Inhibitory Activity IC50 JAK2; for Selectivity JAK2/JAK1: ratio of IC50 against JAK2 over IC50 against JAK1
Procedure: as §1, §2, §3, §4

JAK1 = JAK1 (Homo sapiens (Human), UniProt P23458); test: Cellular JAK1 assay: IL-6-mediated STAT3 phosphorylation in TF-1 cells; format: cell-based; details: IL-6 stimulation, STAT3 phosphorylation at Tyr705 (AlphaLISA), read-out: Inhibitory Activity Against JAK1 IC50
Procedure: The cellular potency of a compound on JAK1 or JAK2 inhibition is determined by measuring the cytokine-mediated phosphorylation of STAT proteins in TF-1 cells.
Human cytokines of IL-6 (R&D Systems, Cat. No. 206-IL-010/CF) and GM-CSF (R&D Systems, Cat. No. 215-GM-010/CF) are reconstituted at 10 μg/mL in D-PBS containing 0.1% BSA (Sigma, Cat. No. A8577) and human EPO (R&D Systems, Cat. No. 287-TC-500) at 500 U/mL in D-PBS containing 0.1% BSA. TF-1 cells (ATCC, CRL-2003) were grown in RPMI1640 (ATCC, Cat. No. 30-2001) supplemented with 2 ng/mL of recombinant human GM-CSF, 10% FBS (Gibco, Cat. No. 10437-028), and 100 U/mL penicillin-streptomycin (Gibco, Cat. No. 15140-122). The cells were maintained and propagated between 1×10^5 cells/mL to 7.5×10^5 cells/mL. Aliquots of the cells from early passages were preserved for liquid nitrogen storage. Frozen vials of the cells were thawed at 37° C. water bath. The cells were spun to remove freezing medium. The newly revived frozen cells were adapted in culture for 5-7 days before used for compound testing. The cells used in for compound testing were less than 20 subculture passages or 3 months in culture.
To test compounds, the TF-1 cells were harvested at a density of 3 to 7×10^5 cells/mL by centrifugation. After removing the culture medium, the resulting cell pellet was suspended and washed once by centrifugation with HBSS buffer (Gibco, Cat. No. 14025-092) containing 0.1% BSA. The cell pellet was resuspended in HBSS buffer at 7.5×10^6 cells/mL. Four micro-liters of the cells (3×10^4 cells in total) were added to each well of a white 384-well plate (Packard, Cat. No. 6005214).
The compounds were first diluted in dimethylsulfoxide (DMSO) (Sigma, Cat. No. D2650) to generate 9 3-fold diluted dosing concentrations in a 96-well polypropylene plate (Corning, Cat. No. 3365), followed by addition of HBSS buffer for another 125-fold dilution. To the cells, 2 μL of the diluted compounds were added and mixed by tapping the plate several times. The cells were incubated for 2 hrs of treatment. DMSO was used as a control and similarly diluted along and added to the cells.
To assay JAK1 inhibition, 2 μL of IL-6 diluted at 400 ng/mL (4×) in HBSS containing 0.1% BSA was added to the treated cells. The cells were then incubated for 30 min of cytokine treatment and lysed at the end by addition of 2 μL of 5×AlphaLISA SureFire Ultra lysis buffer from Perkin Elmer. The plate was agitated on a plate shaker for 10 min at room temperature. The cellular JAK1 activity was determined by measuring STAT3 phosphorylation at Tyr705 in lysates using the AlphaLISA SureFire Ultra kit (Perkin Elmer, Cat. No. ALSU-PST3-A500). A volume of 5 μL of acceptor mix and donor mix was added sequentially to lysates following the product protocol. The assay signals were recorded on EnVision plate reader (Perkin Elmer) with AlphaScreen optics setting.
The results are summarized in Table 3, where A represents a value no greater than 500 nM, B represents a value greater than 500 nM but no greater than 1 μM, C represents a value greater than 1 μM but no greater than 5 μM, and D represents a value greater than 5 μM.

Chain of human Janus kinase 2 (JAK2), recombinant catalytic domain (O60674 808-1132): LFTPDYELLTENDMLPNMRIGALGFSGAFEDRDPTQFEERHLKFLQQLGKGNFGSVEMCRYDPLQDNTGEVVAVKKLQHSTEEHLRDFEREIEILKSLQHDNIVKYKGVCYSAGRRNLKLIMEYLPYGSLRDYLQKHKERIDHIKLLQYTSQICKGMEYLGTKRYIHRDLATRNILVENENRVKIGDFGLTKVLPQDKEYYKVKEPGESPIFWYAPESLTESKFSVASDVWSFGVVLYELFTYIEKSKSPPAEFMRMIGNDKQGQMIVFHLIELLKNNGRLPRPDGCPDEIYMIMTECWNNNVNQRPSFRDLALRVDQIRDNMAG
Chain of human Janus kinase 3 (JAK3), recombinant catalytic domain (Homo sapiens (Human), UniProt P52333) (P52333 781-1124): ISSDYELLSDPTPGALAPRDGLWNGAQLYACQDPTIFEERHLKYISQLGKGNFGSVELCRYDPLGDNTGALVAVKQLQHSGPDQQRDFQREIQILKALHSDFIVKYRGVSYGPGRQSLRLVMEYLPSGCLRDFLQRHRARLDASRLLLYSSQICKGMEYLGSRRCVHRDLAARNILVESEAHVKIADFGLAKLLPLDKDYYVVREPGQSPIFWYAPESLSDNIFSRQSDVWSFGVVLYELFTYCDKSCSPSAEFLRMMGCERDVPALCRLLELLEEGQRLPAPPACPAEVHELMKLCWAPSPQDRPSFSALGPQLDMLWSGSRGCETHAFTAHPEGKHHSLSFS
Chain of human tyrosine kinase 2 (TYK2), recombinant catalytic domain (Homo sapiens (Human), UniProt P29597) (P29597 833-1187): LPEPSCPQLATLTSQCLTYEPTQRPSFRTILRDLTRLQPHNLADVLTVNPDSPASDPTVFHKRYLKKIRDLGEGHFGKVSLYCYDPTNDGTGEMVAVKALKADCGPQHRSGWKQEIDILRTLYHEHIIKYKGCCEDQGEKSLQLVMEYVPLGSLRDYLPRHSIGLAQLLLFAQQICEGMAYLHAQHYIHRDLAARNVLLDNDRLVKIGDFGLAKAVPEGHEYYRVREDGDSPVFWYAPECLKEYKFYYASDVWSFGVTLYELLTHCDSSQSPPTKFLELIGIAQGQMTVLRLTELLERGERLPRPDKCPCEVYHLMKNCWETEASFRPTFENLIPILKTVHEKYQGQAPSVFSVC
Chain of human Janus kinase 1 (JAK1), recombinant catalytic domain (P23458 866-1154): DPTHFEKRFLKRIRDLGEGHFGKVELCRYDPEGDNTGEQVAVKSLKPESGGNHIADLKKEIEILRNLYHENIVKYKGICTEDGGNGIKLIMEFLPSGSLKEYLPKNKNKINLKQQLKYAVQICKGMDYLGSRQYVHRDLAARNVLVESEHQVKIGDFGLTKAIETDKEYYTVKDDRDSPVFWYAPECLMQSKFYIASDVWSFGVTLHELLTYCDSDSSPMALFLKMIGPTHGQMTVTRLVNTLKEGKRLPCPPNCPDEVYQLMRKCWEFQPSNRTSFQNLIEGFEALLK
Chain of JAK1 (P23458 whole entry): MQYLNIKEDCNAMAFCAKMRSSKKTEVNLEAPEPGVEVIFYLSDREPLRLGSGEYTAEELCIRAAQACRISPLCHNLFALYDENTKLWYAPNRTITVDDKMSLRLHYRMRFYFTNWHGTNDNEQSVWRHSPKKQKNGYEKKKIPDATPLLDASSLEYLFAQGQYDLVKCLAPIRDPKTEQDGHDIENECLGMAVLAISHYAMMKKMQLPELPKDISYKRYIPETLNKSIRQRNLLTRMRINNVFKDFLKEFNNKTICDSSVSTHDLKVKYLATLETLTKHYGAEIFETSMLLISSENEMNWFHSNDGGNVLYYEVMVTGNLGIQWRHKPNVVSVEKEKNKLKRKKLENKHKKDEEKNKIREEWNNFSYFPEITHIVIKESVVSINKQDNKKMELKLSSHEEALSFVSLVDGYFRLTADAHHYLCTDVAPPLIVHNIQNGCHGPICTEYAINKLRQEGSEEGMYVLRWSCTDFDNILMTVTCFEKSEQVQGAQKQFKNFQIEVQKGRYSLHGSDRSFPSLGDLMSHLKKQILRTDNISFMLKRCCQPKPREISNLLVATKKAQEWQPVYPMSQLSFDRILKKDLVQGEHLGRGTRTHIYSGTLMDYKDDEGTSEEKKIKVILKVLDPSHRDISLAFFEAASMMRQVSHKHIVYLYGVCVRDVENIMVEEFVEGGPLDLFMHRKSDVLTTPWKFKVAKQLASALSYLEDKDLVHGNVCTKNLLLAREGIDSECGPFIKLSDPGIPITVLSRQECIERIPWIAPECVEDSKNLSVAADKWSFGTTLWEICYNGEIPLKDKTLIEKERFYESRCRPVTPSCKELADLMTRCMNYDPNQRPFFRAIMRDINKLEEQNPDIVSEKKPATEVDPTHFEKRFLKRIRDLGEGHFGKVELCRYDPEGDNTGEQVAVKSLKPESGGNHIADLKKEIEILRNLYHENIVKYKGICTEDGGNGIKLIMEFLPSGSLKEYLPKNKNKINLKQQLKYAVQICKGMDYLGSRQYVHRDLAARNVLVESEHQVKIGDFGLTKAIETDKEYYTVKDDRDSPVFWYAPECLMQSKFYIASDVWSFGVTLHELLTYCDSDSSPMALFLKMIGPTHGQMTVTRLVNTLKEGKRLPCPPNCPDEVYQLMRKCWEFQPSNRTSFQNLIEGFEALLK

## O=C(Nc1cn2c(-c3ccc(CN4CCS(=O)(=O)CC4)cc3)cccc2n1)C1CC1 [Compound 1, N-(5-(4-((1,1-Dioxo-1-thiomorpholino)methyl)phenyl)imidazo[1,2-a]pyridin-2-yl) cyclopropanecarboxamide]
[1]
  IC50: > 5 µM
[2]
  Selectivity JAK3/JAK1: A′ (A′ represents a ratio of greater than 8)
[3]
  Selectivity TYK2/JAK1: A′ (A′ represents a ratio of greater than 8)
[4]
  IC50: 1000 to 5000 nM
[5]
  IC50: ≤ 500 nM
[6]
  IC50: 1000 to 5000 nM
  Selectivity JAK2/JAK1: A′ (A′ represents a ratio of greater than 8)
JAK1
  IC50: ≤ 500 nM

## CC1(C)CN(C(=O)c2ccc(-c3cccc4nc(NC(=O)C5CC5)cn34)cc2)C1 [Compound 17]
[1]
  IC50: > 5 µM
[2]
  Selectivity JAK3/JAK1: A′ (A′ represents a ratio of greater than 8)
[3]
  Selectivity TYK2/JAK1: A′ (A′ represents a ratio of greater than 8)
[4]
  IC50: 1000 to 5000 nM
[5]
  IC50: ≤ 500 nM
[6]
  IC50: 1000 to 5000 nM
  Selectivity JAK2/JAK1: A′ (A′ represents a ratio of greater than 8)
JAK1
  IC50: ≤ 500 nM

## CC1(C)CN(C(=O)c2ccc(-c3cccc4nc(NC(=O)C5CC5)cn34)cc2F)C1 [Compound 24]
[1]
  IC50: > 5 µM
[2]
  Selectivity JAK3/JAK1: A′ (A′ represents a ratio of greater than 8)
[3]
  Selectivity TYK2/JAK1: A′ (A′ represents a ratio of greater than 8)
[4]
  IC50: 1000 to 5000 nM
[5]
  IC50: ≤ 500 nM
[6]
  IC50: 1000 to 5000 nM
  Selectivity JAK2/JAK1: A′ (A′ represents a ratio of greater than 8)
JAK1
  IC50: ≤ 500 nM

## O=C(Nc1cn2c(-c3ccc(NS(=O)(=O)C4CC4)cc3)cccc2n1)C1CC1 [Compound 30]
[1]
  IC50: > 5 µM
[2]
  Selectivity JAK3/JAK1: A′ (A′ represents a ratio of greater than 8)
[3]
  Selectivity TYK2/JAK1: B′ (B′ represents a ratio of no greater than 8 but no less than 4)
[4]
  IC50: ≤ 500 nM
[5]
  IC50: ≤ 500 nM
[6]
  IC50: 500 to 1000 nM
  Selectivity JAK2/JAK1: A′ (A′ represents a ratio of greater than 8)
JAK1
  IC50: ≤ 500 nM

## O=C(Nc1cn2c(-c3ccc(CN4CCS(=O)(=O)CC4)c(F)c3)cccc2n1)C1CC1 [Compound 28]
[1]
  IC50: > 5 µM
[2]
  Selectivity JAK3/JAK1: A′ (A′ represents a ratio of greater than 8)
[3]
  Selectivity TYK2/JAK1: A′ (A′ represents a ratio of greater than 8)
[4]
  IC50: 500 to 1000 nM
[5]
  IC50: ≤ 500 nM
[6]
  IC50: 500 to 1000 nM
  Selectivity JAK2/JAK1: A′ (A′ represents a ratio of greater than 8)
JAK1
  IC50: ≤ 500 nM

## N#CCc1ccc(-c2cccc3nc(NC(=O)C4CC4)cn23)cc1F [Compound 26]
[1]
  IC50: > 5 µM
[2]
  Selectivity JAK3/JAK1: A′ (A′ represents a ratio of greater than 8)
[3]
  Selectivity TYK2/JAK1: A′ (A′ represents a ratio of greater than 8)
[4]
  IC50: > 5000 nM
[5]
  IC50: ≤ 500 nM
[6]
  IC50: > 5000 nM
  Selectivity JAK2/JAK1: A′ (A′ represents a ratio of greater than 8)
JAK1
  IC50: ≤ 500 nM
